The source of these data is patent US20100056524A1, “Compound” (priority 2008, published 2010).

As a reminder, the pIC50 is the IC50 on a negative log10 scale, so that one unit is a factor of ten.

pIC50: −log10 of the molar value. Where a name gives a salt, the structure may show the parent alone.

The target in this assay is T1, TBK1 (Homo sapiens, UniProt Q9UHD2).
T1 construct: All protein kinases were of human origin and encoded full length proteins, unless indicated otherwise; His6; made in house; host or cells: insect Sf21 cells
T1 sequence (Q9UHD2 1-729): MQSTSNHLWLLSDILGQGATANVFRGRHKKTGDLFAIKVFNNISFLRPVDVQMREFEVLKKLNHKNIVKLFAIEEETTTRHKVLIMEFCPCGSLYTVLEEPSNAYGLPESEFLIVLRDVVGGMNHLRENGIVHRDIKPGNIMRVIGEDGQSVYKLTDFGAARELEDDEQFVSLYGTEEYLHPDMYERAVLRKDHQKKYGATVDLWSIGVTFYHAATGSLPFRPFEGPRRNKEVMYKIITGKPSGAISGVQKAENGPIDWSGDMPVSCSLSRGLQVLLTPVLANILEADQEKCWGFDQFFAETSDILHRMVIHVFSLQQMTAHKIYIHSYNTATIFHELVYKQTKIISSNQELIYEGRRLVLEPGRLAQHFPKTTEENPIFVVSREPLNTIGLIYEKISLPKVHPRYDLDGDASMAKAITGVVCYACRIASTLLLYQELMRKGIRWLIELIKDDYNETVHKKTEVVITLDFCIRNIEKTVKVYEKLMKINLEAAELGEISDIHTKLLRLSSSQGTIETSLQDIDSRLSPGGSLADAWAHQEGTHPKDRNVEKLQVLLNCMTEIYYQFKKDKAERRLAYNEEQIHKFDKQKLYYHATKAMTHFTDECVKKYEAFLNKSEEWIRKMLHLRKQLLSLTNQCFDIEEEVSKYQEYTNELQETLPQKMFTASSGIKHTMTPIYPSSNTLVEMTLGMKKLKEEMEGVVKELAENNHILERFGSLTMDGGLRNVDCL
The experiment in a line: TBK1 protein kinase assay ([γ-33P]ATP, P81 filterplates). The format is biochemical. To be noted: 50 μM ATP; read-out: Potency (TBK1 IC50 potency score). The method, boiled down:
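Human TBK1 assayed for 30 min with peptide substrate (300 μM), 50 μM [γ-33P]ATP and 10 mM magnesium acetate in 50 mM Tris/HCl pH 7.5, 0.1 mM EGTA, 0.1% 2-mercaptoethanol. Stopped with orthophosphoric acid and counted on P81 filters. IC50 from 10 compound concentrations.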
With `O=C(NCCCNc1nc(Nc2cccc(-c3cnco3)c2)ncc1C1CC1)C1CCC1` [Example 87, Cyclobutanecarboxylic acid {3-[5-cyclopropyl-2-(3-oxazol-5-yl-phenylamino)-pyrimidin-4-ylamino]-propyl}-amide], the pIC50 was more than 7.00.

On to `O=C1NCc2ccc(Nc3ncc(C4CC4)c(NCCCNC(=O)C4CCC4)n3)cc21` [Example 88, Cyclobutanecarboxylic acid {3-[5-cyclopropyl-2-(3-oxo-2,3-dihydro-1H-isoindol-5-ylamino)-pyrimidin-4-ylamino]-propyl}-amide hydrochloride salt], for which the pIC50 is more than 7.00.

On to `O=C(NCc1ncc[nH]1)c1cccc(Nc2ncc(C3CC3)c(NCCCNC(=O)C3CCC3)n2)c1` [Example 89, 3-{4-[3-(Cyclobutanecarbonyl-amino)-propylamino]-5-cyclopropyl-pyrimidin-2-ylamino}-N-(1H-imidazol-2-ylmethyl)-benzamide. Hydrochloride salt], for which the pIC50 is more than 7.00.

Take `O=C1NCc2cc(Nc3ncc(C4CC4)c(NCCCNC(=O)C4CCC4)n3)ccc21` [Example 90, Cyclobutanecarboxylic acid {3-[5-cyclopropyl-2-(1-oxo-2,3-dihydro-1H-isoindol-5-ylamino)-pyrimidin-4-ylamino]-propyl}-amide. Trifluoroacetic acid salt]: the negative-log IC50 (pIC50) was more than 7.00.

With `CN1CCN(c2cccc(Nc3ncc(C4CC4)c(NCCCNC(=O)C4CCC4)n3)c2)CC1` [Example 91, Cyclobutanecarboxylic acid (3-{5-cyclopropyl-2-[3-(4-methyl-piperazin-1-yl)-phenylamino]-pyrimidin-4-ylamino}-propyl)-amide. Trifluoroacetic acid salt], the pIC50 is more than 7.00.

Consider `O=C(NCCCNc1nc(Nc2ccc(N3CCOCC3)nc2)ncc1C1CC1)C1CCC1` [Example 93, Cyclobutanecarboxylic acid {3-[5-cyclopropyl-2-(6-morpholin-4-yl-pyridin-3-ylamino)-pyrimidin-4-ylamino]-propyl}-amide], for which the pIC50 is more than 7.00.

As for `O=C(NCCCNc1nc(Nc2cccc(-c3nnn[nH]3)c2)ncc1C1CC1)C1CCC1` [Example 94, Cyclobutanecarboxylic acid (3-{5-cyclopropyl-2-[3-(2H-tetrazol-5-yl)-phenylamino]-pyrimidin-4-ylamino}-propyl)-amide], the pIC50 is 6.00 to 7.00.

`O=C(O)Cc1cccc(Nc2ncc(C3CC3)c(NCCCNC(=O)C3CCC3)n2)c1` [Example 95, (3-{4-[3-(Cyclobutanecarbonyl-amino)-propylamino]-5-cyclopropyl-pyrimidin-2-ylamino}-phenyl)-acetic acid. Hydrochloride]: the pIC50 is more than 7.00.

In the case of `O=C(NCCCNc1nc(Nc2ccc3nc[nH]c3c2)ncc1C1CC1)C1CCC1` [Example 96, Cyclobutanecarboxylic acid {3-[2-(3H-benzimidazol-5-ylamino)-5-cyclopropyl-pyrimidin-4-ylamino]-propyl}-amide], the pIC50 was more than 7.00.

With `O=C(NCCCNc1nc(Nc2ccc(Br)nc2)ncc1C1CC1)C1CCC1` [Example 97, Cyclobutanecarboxylic acid {3-[2-(6-bromo-pyridin-3-ylamino)-5-cyclopropyl-pyrimidin-4-ylamino]-propyl}-amide], the negative logarithm of the IC50 (pIC50) is more than 7.00.

With `O=C(NCCCNc1nc(Nc2ccc(I)nc2)ncc1C1CC1)C1CCC1` [Example 98, Cyclobutanecarboxylic acid {3-[5-cyclopropyl-2-(6-iodo-pyridin-3-ylamino)-pyrimidin-4-ylamino]-propyl}-amide], the negative-log IC50 (pIC50) is more than 7.00.

For `O=C(NCCCNc1nc(Nc2ccc(Cl)nc2)ncc1C1CC1)C1CCC1` [Example 99, Cyclobutanecarboxylic acid {3-[2-(6-chloro-pyridin-3-ylamino)-5-cyclopropyl-pyrimidin-4-ylamino]-propyl}-amide], the pIC50 was more than 7.00.

Take `CN(C)CCN(C)c1ccc(Nc2ncc(C3CC3)c(NCCCNC(=O)C3CCC3)n2)cn1` [Example 100, Cyclobutanecarboxylic acid [3-(5-cyclopropyl-2-{6-[(2-dimethylamino-ethyl)-methyl-amino]-pyridin-3-ylamino}-pyrimidin-4-ylamino)-propyl]-amide]: the pIC50 was more than 7.00.

Take `CN(CCN1CCOCC1)c1ccc(Nc2ncc(C3CC3)c(NCCCNC(=O)C3CCC3)n2)cn1` [Example 102, Cyclobutanecarboxylic acid [3-(5-cyclopropyl-2-{6-[methyl-(2-morpholin-4-yl-ethyl)-amino]-pyridin-3-ylamino}-pyrimidin-4-ylamino)-propyl]-amide]: the negative-log IC50 (pIC50) was more than 7.00.

With `O=C(NCCCNc1nc(Nc2ccc(CO)nc2)ncc1C1CC1)C1CCC1` [Example 103, Cyclobutanecarboxylic acid {3-[5-cyclopropyl-2-(6-hydroxymethyl-pyridin-3-ylamino)-pyrimidin-4-ylamino]-propyl}-amide], the pIC50 was more than 7.00.

Turning to `O=C(NCCCNc1nc(Nc2ccc(CN3CCOCC3)nc2)ncc1C1CC1)C1CCC1` [Example 104, Cyclobutanecarboxylic acid {3-[5-cyclopropyl-2-(6-morpholin-4-ylmethyl-pyridin-3-ylamino)-pyrimidin-4-ylamino]-propyl}-amide], the pIC50 is more than 7.00.

Turning to `O=C(NCCCOc1nc(Nc2cccc(F)c2)ncc1C1CC1)C1CCC1` [Example 105], the pIC50 is 6.00 to 7.00.

As for `CN(CCCNC(=O)C1CCC1)c1nc(Nc2cccc(F)c2)ncc1C1CC1` [Example 106, Cyclobutanecarboxylic acid (3-{[5-cyclopropyl-2-(3-fluoro-phenylamino)-pyrimidin-4-yl]-methyl-amino}-propyl)-amide], the pIC50 was 6.00 to 7.00.

As to `CN(CCCNc1nc(Nc2cccc(F)c2)ncc1C1CC1)C(=O)C1CCC1` [Example 107, Cyclobutanecarboxylic acid {3-[5-cyclopropyl-2-(3-fluoro-phenylamino)-pyrimidin-4-ylamino]-propyl}-methyl-amide], the pIC50 was more than 7.00.

Regarding `CCCC(=O)NCCCNc1nc(Nc2cccc(F)c2)ncc1C1CC1` [Example 108], the pIC50 was more than 7.00.

As for `CN(CCCNc1nc(Nc2ccc(N3CCOCC3)nc2)ncc1C1CC1)C(=O)C1CCC1` [Example 109, Cyclobutanecarboxylic acid {3-[5-cyclopropyl-2-(6-morpholin-4-yl-pyridin-3-ylamino)-pyrimidin-4-ylamino]-propyl}-methyl-amide], the negative logarithm of the IC50 (pIC50) was more than 7.00.

As to `O=C1CCCCN1CCCNc1nc(Nc2cccc(F)c2)ncc1C1CC1` [Example 110], the pIC50 was 6.00 to 7.00.

For `Cc1cccn(CCCNc2nc(Nc3cccc(F)c3)ncc2C2CC2)c1=O` [Example 111, 1-{3-[5-Cyclopropyl-2-(3-fluoro-phenylamino)-pyrimidin-4-ylamino]-propyl}-3-methyl-H-pyridin-2-one], the pIC50 is 6.00 to 7.00.

On to `CN1CCN(CCCNc2nc(Nc3cccc(F)c3)ncc2C2CC2)C1=O` [Example 112, 1-{3-[5-Cyclopropyl-2-(3-fluoro-phenylamino)-pyrimidin-4-ylamino]-propyl}-3-methyl-imidazolidin-2-one], for which the pIC50 is 6.00 to 7.00.

Consider `CC1(C)CCN(CCCNc2nc(Nc3cccc(F)c3)ncc2C2CC2)C1=O` [Example 113, 1-{3-[5-Cyclopropyl-2-(3-fluoro-phenylamino)-pyrimidin-4-ylamino]-propyl}-3,3-dimethyl-pyrrolidin-2-one], for which the pIC50 was 6.00 to 7.00.

For the compound `O=c1c(C(F)(F)F)cccn1CCCNc1nc(Nc2cccc(F)c2)ncc1C1CC1` [Example 114, 1-{3-[5-Cyclopropyl-2-(3-fluoro-phenylamino)-pyrimidin-4-ylamino]-propyl}-3-trifluoromethyl-1H-pyridin-2-one], the pIC50 is 6.00 to 7.00.

Turning to `Cn1cc(-c2ccc(Nc3ncc(C4CC4)c(NCCCNC(=O)C4CCC4)n3)cn2)cn1` [Example 115, Cyclobutanecarboxylic acid (3-{5-cyclopropyl-2-[6-(1-methyl-1H-pyrazol-4-yl)-pyridin-3-ylamino]-pyrimidin-4-ylamino}-propyl)-amide], the negative-log IC50 (pIC50) was more than 7.00.

For the compound `O=C(NCCCNc1nc(Nc2ccc(-c3cncnc3)nc2)ncc1C1CC1)C1CCC1` [Example 116, Cyclobutanecarboxylic acid {3-[5-cyclopropyl-2-(6-pyrimidin-5-yl-pyridin-3-ylamino)-pyrimidin-4-ylamino]-propyl}-amide], the pIC50 was more than 7.00.

Turning to `O=C(NCCCNc1nc(Nc2cccc(-c3cncnc3)c2)ncc1C1CC1)C1CCC1` [Example 117, Cyclobutanecarboxylic acid {3-[5-cyclopropyl-2-(3-pyrimidin-5-yl-phenylamino)-pyrimidin-4-ylamino]-propyl}-amide], the pIC50 was more than 7.00.
